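How tested: cells in 96-well plates exposed to compound for 48 hours at five concentrations. Abbreviation: GI50, concentration required for 50% inhibition of growth.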 Calls of active or inactive are those of the source. No stated cut-off is given here; in the data, active = GI50 up to about 1.1 µM and inactive = higher.
Tests used:
Test in all cases: NCI tumour cell line growth inhibition, 48 h
CCRF-CEM = system: CCRF-CEM
EKVX = system: EKVX
HCC 2998 = system: HCC 2998
HL-60 = system: HL-60
HOP-62 = system: HOP-62
K562 = system: K562
LOX IMVI = system: LOX IMVI
MOLT-4 = system: MOLT-4
NCI-H522 = system: NCI-H522
SF-268 = system: SF-268
SF-295 = system: SF-295
SK-MEL-28 = system: SK-MEL-28
SK-MEL-2 = system: SK-MEL-2
SK-MEL-5 = system: SK-MEL-5
SNB-75 = system: SNB-75
UACC-62 = system: UACC-62
HCT-116 = system: HCT-116
M14 = system: M14
SR = system: SR

Measured: GI50

COc1cc(/C=C/C(=O)c2sc(-n3nc(-c4ccccc4)cc3-c3ccccc3)nc2C)ccc1O
inactive: CCRF-CEM > 100 µM | EKVX 4.7 µM | HCC 2998 > 100 µM | HL-60 49.9 µM | HOP-62 > 100 µM | K562 32.7 µM | LOX IMVI > 100 µM | MOLT-4 17.5 µM | NCI-H522 14.5 µM | SF-268 > 100 µM | SF-295 57 µM | SK-MEL-28 > 100 µM | SK-MEL-2 > 100 µM | SK-MEL-5 55.2 µM | SNB-75 7.36 µM | UACC-62 > 100 µM

Cc1cc(C)c(C(=O)OC(c2ccccc2)C(c2ccccc2)N2CCOCC2)c(C)c1 (stereo not given)
inactive: CCRF-CEM > 100 µM | EKVX > 100 µM | HCC 2998 > 100 µM | HCT-116 > 100 µM | HL-60 44.6 µM | HOP-62 > 100 µM | K562 > 100 µM | LOX IMVI > 100 µM | M14 > 100 µM | MOLT-4 93.3 µM | NCI-H522 > 100 µM | SF-268 > 100 µM | SF-295 > 100 µM | SK-MEL-28 > 100 µM | SK-MEL-2 > 100 µM | SNB-75 > 100 µM | UACC-62 > 100 µM

O=C1CCC2(c3ccc(F)cc3)Nc3ncccc3N12 (stereo not given)
inactive: CCRF-CEM > 100 µM | EKVX > 100 µM | HCC 2998 > 100 µM | HL-60 > 100 µM | HOP-62 > 100 µM | K562 > 100 µM | LOX IMVI > 100 µM | M14 > 100 µM | MOLT-4 > 100 µM | NCI-H522 > 100 µM | SF-268 > 100 µM | SF-295 > 100 µM | SK-MEL-28 > 100 µM | SK-MEL-2 > 100 µM | SK-MEL-5 > 100 µM | SNB-75 70.1 µM | UACC-62 > 100 µM

Cc1cc(=O)n(-c2cc3cccccc-3n2)[nH]1
inactive: CCRF-CEM 4.13 µM | EKVX 12.5 µM | HCC 2998 12.1 µM | HCT-116 2.16 µM | HL-60 3.48 µM | HOP-62 4.34 µM | K562 2.74 µM | LOX IMVI 9.64 µM | M14 4.42 µM | MOLT-4 4.3 µM | NCI-H522 2.68 µM | SF-295 16.7 µM | SK-MEL-28 4.67 µM | SK-MEL-5 2.05 µM | SNB-75 3.76 µM | UACC-62 2.84 µM

COc1ccc(/C(Cl)=C(\C=O)c2ccc([N+](=O)[O-])cc2)cc1
inactive: CCRF-CEM 4.1 µM | EKVX 21.8 µM | HCC 2998 21 µM | HL-60 3.08 µM | HOP-62 21.5 µM | K562 3.12 µM | LOX IMVI 3.49 µM | M14 11.8 µM | MOLT-4 2.42 µM | NCI-H522 4.36 µM | SF-268 20.5 µM | SF-295 13.2 µM | SK-MEL-28 23 µM | SK-MEL-2 6.98 µM | SK-MEL-5 13.2 µM | SNB-75 5.35 µM | UACC-62 7.67 µM

CCOC(=O)NC(=O)c1cn(CCOC(=O)NCCCCCCNC(=O)OCCn2cc(C(=O)NC(=O)OCC)c(=O)[nH]c2=O)c(=O)[nH]c1=O
inactive: CCRF-CEM > 100 µM | EKVX > 100 µM | HCC 2998 > 100 µM | HCT-116 > 100 µM | HL-60 > 100 µM | HOP-62 > 100 µM | K562 > 100 µM | LOX IMVI > 100 µM | M14 > 100 µM | MOLT-4 > 100 µM | NCI-H522 > 100 µM | SF-268 > 100 µM | SF-295 > 100 µM | SK-MEL-28 > 100 µM | SK-MEL-2 > 100 µM | SK-MEL-5 > 100 µM | SNB-75 > 100 µM | UACC-62 > 100 µM

COC(=O)CCC(=O)Nc1cccc(C(F)(F)F)c1
inactive: CCRF-CEM > 100 µM | EKVX > 100 µM | HCC 2998 > 100 µM | HL-60 > 100 µM | HOP-62 > 100 µM | K562 > 100 µM | LOX IMVI > 100 µM | M14 > 100 µM | MOLT-4 > 100 µM | NCI-H522 > 100 µM | SF-268 > 100 µM | SF-295 > 100 µM | SK-MEL-28 > 100 µM | SK-MEL-2 > 100 µM | SK-MEL-5 > 100 µM | SNB-75 > 74.1 µM | UACC-62 > 100 µM

CCCCCCC(=O)C/C(=N/NC(N)=S)C(=O)NC1C2CC3CC(C2)CC1C3 (stereo not given)
inactive: CCRF-CEM > 100 µM | EKVX > 100 µM | HCC 2998 > 100 µM | HCT-116 > 100 µM | HL-60 > 100 µM | HOP-62 > 100 µM | LOX IMVI > 100 µM | M14 > 100 µM | MOLT-4 > 100 µM | SF-268 > 100 µM | SF-295 > 100 µM | SK-MEL-28 > 100 µM | SK-MEL-2 > 100 µM | SK-MEL-5 > 100 µM | SNB-75 > 100 µM | UACC-62 > 100 µM

Cc1cc2c(C)nn(Cc3ccc(Cl)cc3Cl)c2c(C#N)c1C
inactive: CCRF-CEM > 100 µM | EKVX > 100 µM | HCC 2998 > 100 µM | HCT-116 69.7 µM | HL-60 > 100 µM | HOP-62 > 100 µM | LOX IMVI > 100 µM | MOLT-4 > 100 µM | SF-268 > 100 µM | SF-295 50.4 µM | SK-MEL-28 > 100 µM | SK-MEL-2 > 100 µM | SNB-75 89.9 µM | SR > 100 µM | UACC-62 > 100 µM

CC(C)(C)[Si](C)(C)OC1C(=O)C[C@H]2CCCC[C@@H]12 (stereo not given in full)
inactive: CCRF-CEM > 100 µM | EKVX > 100 µM | HCC 2998 > 100 µM | HCT-116 > 100 µM | HL-60 48.4 µM | HOP-62 > 100 µM | K562 > 100 µM | LOX IMVI > 100 µM | M14 > 100 µM | MOLT-4 > 100 µM | SF-268 > 100 µM | SF-295 > 100 µM | SK-MEL-2 > 100 µM | SK-MEL-5 > 100 µM | SNB-75 > 100 µM | UACC-62 > 100 µM

Nc1nc2[nH]cnc2c(=O)[nH]1
inactive: CCRF-CEM > 100 µM | EKVX > 100 µM | HCT-116 > 100 µM | HL-60 > 100 µM | HOP-62 > 100 µM | K562 > 100 µM | LOX IMVI > 100 µM | M14 > 100 µM | NCI-H522 > 100 µM | SF-268 > 100 µM | SF-295 > 100 µM | SK-MEL-28 > 100 µM | SK-MEL-2 > 100 µM | SK-MEL-5 > 100 µM | SNB-75 90.6 µM | SR > 100 µM | UACC-62 > 100 µM

NC1CCC[C@H]1O (stereo not given in full)
inactive: CCRF-CEM > 100 µM | EKVX > 100 µM | HCC 2998 > 100 µM | HCT-116 > 100 µM | HL-60 > 100 µM | HOP-62 > 100 µM | K562 > 100 µM | LOX IMVI > 100 µM | M14 > 100 µM | MOLT-4 > 100 µM | NCI-H522 > 100 µM | SF-268 > 100 µM | SF-295 > 100 µM | SK-MEL-28 > 100 µM | SK-MEL-2 > 100 µM | SK-MEL-5 > 100 µM | SNB-75 > 100 µM | UACC-62 > 100 µM

— ChEMBL document CHEMBL1201862, “PubChem BioAssay data set” (2004)
